Laboratory results from US5849259A, “3-,8-substituted deuteroporphyrin derivatives, pharmaceutical agents containing the latter and process for their production” (priority 1992, dated 1998).

Columns and labels:
Assay type in all cases: in vivo, nude mice (Balb/c nu/nu)
[1] = Tissue concentrations by ICP-AES after 0.1 mmol/kg i.v. in nude mice with subcutaneously implanted colon cancers (HT29, WiDr); conditions: within 24 hours
Procedure: a) 9 nude mice (Balb/c nu/nu) with subcutaneously implanted colon cancers (HT29, WiDr) were each administered by i.v. 0.1 mmol/kg of the mesoporphyrin derivative of example 1b (10 mmol/l dissolved in bidistilled water, pH 7.2, 37° C.). After 0.5, 3 and 24 hours the animals were killed and dissected. The tissue concentrations were determined after corresponding working-up (HNO3 conc.) by ICP-AES and calculated for % of the administered dose per gram of tissue net weight.
e) 9 nude mice (Balb/c nu/nu) with subcutaneously implanted colon cancers (HT29 and WiDr) were each administered by i.v. 0.1 mmol/kg of the deuteroporphyrin derivative of the compound according to example 1c (10 mmol/l dissolved in bidistilled water, pH 7.2, 37° C.). After 0.5, 3 and 24 hours, the animals were killed and dissected. The tissue concentrations were determined after corresponding working-up (HNO3 conc.) by ICP-AES and calculated for % of the administered dose per gram of tissue net weight. Moreover, tissue relaxation times T1 and T2 were determined (Bruker minispec pc 120).
9 nude mice (Balb/c nu/nu) with subcutaneously implanted colon cancers (HT29, WiDr) were each administered by i.v. 0.1 mmol/kg of the mesoporphyrin derivative of example 8e (10 mmol/l dissolved in bidistilled water, pH 7.2, 37° C.). After 0.5, 3 and 24 hours, the animals were killed and dissected. The tissue concentrations were determined after corresponding working-up (HNO3 conc.) by ICP-AES and calculated for % of the administered dose per gram of tissue net weight.
9 nude mice (Balb/c nu/nu) with subcutaneously implanted colon cancers (HT29, WiDr) were each administered by i.v. 0.1. mmol/kg of the mesoporphyrin derivative of example 16f (10 mmol/l dissolved in bidistilled water, pH 7.2, 37° C.). After 0.5 and 3 hours the animals were killed and dissected. The tissue concentrations were determined after corresponding working-up (HNO3 conc.) by ICP-AES and calculated for % of the administered dose per gram of tissue net weight.
9 nude mice (Balb/c nu/nu) with subcutaneously implanted colon cancers (HT29, WiDr) were each administered by i.v. 0.1 mmol/kg of the mesoporphyrin derivative of example 18d (10 mmol/l dissolved in bidistilled water, pH 7.2, 37° C.). After 0.5 and 3 hours, the animals were killed and dissected. The tissue concentrations were determined after corresponding working-up (HNO3 conc.) by ICP-AES and calculated for % of the administered dose per gram of tissue net weight.
9 nude mice (Balb/c nu/nu) with subcutaneously implanted colon cancers (HT29, WiDr) were each administered by i.v. 0.1 mmol/kg of the mesoporphyrin derivative of example 19e (10 mmol/l dissolved in bidistilled water, pH 7.2, 37° C.). After 0.5, 3 and 24 hours, the animals were killed and dissected. The tissue concentrations were determined after corresponding working-up (HNO3 conc.) by ICP-AES and calculated for % of the administered dose per gram of tissue net weight.

[2] = tested on: HT29 and WiDr colon cancers; assay: Enhancement (signal intensity change, NMR imaging) in tissues with HT29/WiDr tumors, Example 22 Table 2
[3] = tested on: HT29 and WiDr colon cancer; assay: Signal intensity change in tissues of tumor-bearing (HT29 and WiDr colon cancer) nude mice, example 2c, 0.05 mmol/kg; conditions: 0.05 mmol/kg i.v.; for enhancement, HT29 / enhancement, Kidneys / enhancement, Liver / enhancement, Muscle / enhancement, WiDr: time 0 = 100
Procedure: On a Bruker Biospec nuclear spin tomograph (2.35 Tesla), the signal intensity change in various tissues of tumor-bearing (HT29 and WiDr colon cancer) nude mice (Balb/c nu/nu) was studied after i.v. administration of 0.05 mmol/kg of the compound according to example 2c (10 mmol/l, pH 7.2; 37° C. in bidistilled water). The measurement takes place with a multi slice single echo sequence (MSSE). Imaging parameters: TR: 400 ms, TE: 30 ms, layer thickness: 4 mm, number of averages: 4/slice, matrix 256^2. After a preliminary image, 0.05 mmol/kg of the substance was administered and the signal intensity change (relative to an internal standard) was studied 5, 30, 60, 120 and 180 minutes

Substance: 13,17-Bis-(15-carboxylato-6-oxo-8,11,14-tris-(carboxylatomethyl)-5,8,11,14-tetraazapentadecyl]-3,8-diethyl-2,7,12,18-tetramethylporphyrin, digadolinium complex, disodium salt [Example 19e]
- decrease of tissue concentration except liver, relative to 0.5 hour p.i. [1]: 5-20 factor

Substance: N,N'-Bis[9-carboxylato-2,5-bis(carboxylatomethyl)-8-(ethoxycarboxymethyl-2,5,8-triazanonyl-carbamoyl]-mesoporphyrin-IX-13,17-diamide, digadolinium complex [Example 1b]
- enhancement, HT29 ([2]; 5 min): 1.36
- enhancement, Kidneys ([2]; 5 min): 2.89
- enhancement, Liver ([2]; 5 min): 1.43
- enhancement, Muscle ([2]; 5 min): 1.41
- enhancement, WiDr ([2]; 5 min): 1.16
- signal intensity change, liver tissue ([2]; 5 minutes p.i.): marked signal intensity increase
- enhancement, HT29 ([2]; 15 min): 1.49
- enhancement, Kidneys ([2]; 15 min): 2.70
- enhancement, Liver ([2]; 15 min): 1.43
- enhancement, Muscle ([2]; 15 min): 1.41
- enhancement, WiDr ([2]; 15 min): 1.16
- enhancement, HT29 ([2]; 30 min): 1.54
- enhancement, Kidneys ([2]; 30 min): 2.65
- enhancement, Liver ([2]; 30 min): 1.40
- enhancement, Muscle ([2]; 30 min): 1.39
- enhancement, WiDr ([2]; 30 min): 1.18
- enhancement, HT29 ([2]; 45 min): 1.55
- enhancement, Kidneys ([2]; 45 min): 2.79
- enhancement, Liver ([2]; 45 min): 1.42
- enhancement, Muscle ([2]; 45 min): 1.40
- enhancement, WiDr ([2]; 45 min): 1.25
- enhancement, HT29 ([2]; 60 min): 1.59
- enhancement, Kidneys ([2]; 60 min): 2.56
- enhancement, Liver ([2]; 60 min): 1.38
- enhancement, Muscle ([2]; 60 min): 1.29
- enhancement, WiDr ([2]; 60 min): 1.05
- enhancement, HT29 ([2]; 75 min): 1.97
- enhancement, Kidneys ([2]; 75 min): 2.53
- enhancement, Liver ([2]; 75 min): 1.51
- enhancement, Muscle ([2]; 75 min): 1.47
- enhancement, WiDr ([2]; 75 min): 1.23
- maximum enhancement, liver ([2]; 75 minutes p.i.): +50%
- maximum enhancement, tumor ([2]; 75 minutes p.i.): +100%
- enhancement, HT29 ([2]; 90 min): 1.51
- enhancement, Kidneys ([2]; 90 min): 2.40
- enhancement, Liver ([2]; 90 min): 1.43
- enhancement, Muscle ([2]; 90 min): 1.50
- enhancement, WiDr ([2]; 90 min): 1.28
- enhancement, HT29 ([2]; 120 min): 1.64
- enhancement, Kidneys ([2]; 120 min): 2.15
- enhancement, Liver ([2]; 120 min): 1.47
- enhancement, Muscle ([2]; 120 min): 1.34
- enhancement, WiDr ([2]; 120 min): 1.22
- enhancement, HT29 ([2]; 24 hours): 1.05
- enhancement, Kidneys ([2]; 24 hours): 1.51
- enhancement, Liver ([2]; 24 hours): 1.19
- enhancement, Muscle ([2]; 24 hours): 1.24
- enhancement, WiDr ([2]; 24 hours): 1.64
- signal intensity change, tumor ([2]; after 30 minutes): marked signal intensity increase
- signal intensity change, kidneys ([2]; mouse, in vivo): stronger signal intensity change
- signal intensity change, muscle ([2]; reference tissue): only a small change

Substance: N,N'-Bis[13-carboxylato-4-oxo-6,8,12-tris-(carboxylatomethyl)-3,6,9,12-tetraazatridecyl]-mesoporphyrin--IX-3,17-diamide, digadolinium complex, disodium salt [Example 2c]
- time of greatest signal intensity difference [3]: 2 hours p.i. or 3 hours p.i.
- enhancement, HT29 ([3]; 5 min): 171 ± 14
- enhancement, Kidneys ([3]; 5 min): 169 ± 45
- enhancement, Liver ([3]; 5 min): 173 ± 31
- enhancement, Muscle ([3]; 5 min): 143 ± 23
- enhancement, WiDr ([3]; 5 min): 165 ± 39
- signal intensity change, liver tissue and both tumors ([3]; 5 minutes p.i.): marked signal intensity increase
- enhancement, HT29 ([3]; 30 min): 169 ± 14
- enhancement, Kidneys ([3]; 30 min): 211 ± 33
- enhancement, Liver ([3]; 30 min): 157 ± 30
- enhancement, Muscle ([3]; 30 min): 157 ± 29
- enhancement, WiDr ([3]; 30 min): 170 ± 32
- enhancement, HT29 ([3]; 60 min): 168 ± 12
- enhancement, Kidneys ([3]; 60 min): 207 ± 31
- enhancement, Liver ([3]; 60 min): 170 ± 16
- enhancement, Muscle ([3]; 60 min): 120 ± 8
- enhancement, WiDr ([3]; 60 min): 153 ± 33
- enhancement, HT29 ([3]; 120 min): 178 ± 32
- enhancement, Kidneys ([3]; 120 min): 191 ± 37
- enhancement, Liver ([3]; 120 min): 179 ± 37
- enhancement, Muscle ([3]; 120 min): 126 ± 10
- enhancement, WiDr ([3]; 120 min): 153 ± 0
- enhancement, HT29 ([3]; 180 min): 136 ± 23
- enhancement, Kidneys ([3]; 180 min): 136 ± 25
- enhancement, Liver ([3]; 180 min): 167 ± 7
- enhancement, Muscle ([3]; 180 min): 112 ± 9
- enhancement, WiDr ([3]; 180 min): 117 ± 33
- signal intensity change, muscle ([3]; reference tissue): only a small change
- signal intensity change, kidneys ([3]; up to 2 hours p.i.): even stronger signal intensity change
